This note sets out measurements from PMC10632405, “A novel in silico scaffold-hopping method for drug repositioning in rare and intractable diseases” (Scientific Reports, 2023).

A word on the inhibition: it is how much of the control response was suppressed.

This assay deals with PAK5 (Homo sapiens, UniProt Q9P286). Particulars: read-out: % inhibition at 50 nM.
Chain of PAK5 (Q9P286 whole entry): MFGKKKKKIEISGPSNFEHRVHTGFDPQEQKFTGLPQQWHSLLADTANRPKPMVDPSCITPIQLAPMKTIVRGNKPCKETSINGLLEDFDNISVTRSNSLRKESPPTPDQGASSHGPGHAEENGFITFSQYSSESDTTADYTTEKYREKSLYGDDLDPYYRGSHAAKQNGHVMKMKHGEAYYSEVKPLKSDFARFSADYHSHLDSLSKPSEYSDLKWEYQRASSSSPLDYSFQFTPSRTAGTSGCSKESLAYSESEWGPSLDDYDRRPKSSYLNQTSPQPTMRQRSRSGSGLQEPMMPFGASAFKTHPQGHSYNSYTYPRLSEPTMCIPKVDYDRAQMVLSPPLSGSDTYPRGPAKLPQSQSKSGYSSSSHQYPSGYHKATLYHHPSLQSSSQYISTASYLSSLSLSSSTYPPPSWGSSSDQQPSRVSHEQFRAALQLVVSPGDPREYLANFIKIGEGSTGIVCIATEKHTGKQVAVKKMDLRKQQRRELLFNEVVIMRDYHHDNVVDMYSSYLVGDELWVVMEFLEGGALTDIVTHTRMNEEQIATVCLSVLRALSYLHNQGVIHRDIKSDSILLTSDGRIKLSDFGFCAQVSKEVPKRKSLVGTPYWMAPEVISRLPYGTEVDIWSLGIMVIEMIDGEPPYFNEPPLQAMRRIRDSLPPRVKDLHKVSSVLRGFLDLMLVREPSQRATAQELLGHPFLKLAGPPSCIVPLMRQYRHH

Regarding `NC(=O)c1cnc(N[C@@H]2CCCC[C@@H]2N)nc1Nc1cccc(-n2nccn2)c1` [BIIB-057], the inhibition at 0.05 µM is over 50%.
